# Results published in US20100267561A1, “HERBICIDAL PYRIDAZINONE DERIVATIVES” (priority 2007, published 2010).
# Legend:
# Experiment in all cases: Test B pre-/postemergence plant response
# Assay type in all cases: in vivo
# Conditions in all cases: Preemergence
# [1] = test system: corn (Zea mays)
# Summary of the method: (§1)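 Seeds were sown and sprayed preemergence, while plants at 2 to 18 cm (1- to 4-leaf stage) got postemergence sprays. Compounds were formulated in a non-phytotoxic solvent mixture with surfactant. After 13 to 15 days in a greenhouse, injury was rated visually against untreated controls, 0 (no effect) to 100 (complete control).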
# [2] = test system: wheat (Triticum aestivum)
# Summary of the method: as §1
# [3] = test system: giant foxtail (Setaria faberii)
# Summary of the method: as §1
# [4] = test system: green foxtail (Setaria viridis)
# Summary of the method: as §1
# [5] = test system: lambsquarters (Chenopodium album)
# Summary of the method: as §1
# [6] = test system: soybean (Glycine max)
# Summary of the method: as §1
# [7] = test system: cocklebur (Xanthium strumarium)
# Summary of the method: as §1
# [8] = test system: velvetleaf (Abutilon theophrasti)
# Summary of the method: as §1
# [9] = test system: goosegrass (Eleusine indica)
# Summary of the method: as §1
# [10] = test system: kochia (Kochia scoparia)
# Summary of the method: as §1
# [11] = test system: Russian thistle (Salsola iberica)
# Summary of the method: as §1
# [12] = test system: yellow nutsedge (Cyperus esculentus)
# Summary of the method: as §1
# [13] = test system: woolly cupgrass (Eriochloa villosa)
# Summary of the method: as §1
# [14] = test system: bermudagrass (Cynodon dactylon)
# Summary of the method: as §1
# [15] = 16 g ai/ha, scale 0 to 100 (0 no effect, 100 complete control)
# [16] = 31 g ai/ha, 0 to 100 scale, 0 no effect, 100 complete control
smiles,measurement,setting,value
Cn1ncc(O)c(-c2nn(-c3ccc(Cl)cc3)cc2Br)c1=O [Compound 31],"Plant response rating, Corn",[1]; [15],0
same,"Plant response rating, Corn",[1]; [16],60
same,"Plant response rating, Corn","[1]; 62 g ai/ha, scale 0 to 100",90
same,"Plant response rating, Wheat",[2]; [15],0
same,"Plant response rating, Wheat",[2]; [16],0
same,"Plant response rating, Wheat","[2]; 62 g ai/ha, scale 0 to 100",80
same,Wheat plant response rating,"[2]; 8 g ai/ha, scale 0 to 100",0
same,"Plant response rating, Foxtail, Giant",[3]; [15],90
same,"Plant response rating, Foxtail, Giant",[3]; [16],100
same,"Plant response rating, Foxtail, Giant","[3]; 62 g ai/ha, scale 0 to 100",100
same,"Foxtail, Giant plant response rating","[3]; 8 g ai/ha, scale 0 to 100",90
same,"Plant response rating, Foxtail, Green",[4]; [15],98
same,"Plant response rating, Foxtail, Green",[4]; [16],100
same,"Plant response rating, Foxtail, Green","[4]; 62 g ai/ha, scale 0 to 100",100
same,"Foxtail, Green plant response rating","[4]; 8 g ai/ha, scale 0 to 100",65
same,"Plant response rating, Lambsquarters",[5]; [15],0
same,"Plant response rating, Lambsquarters",[5]; [16],0
same,"Plant response rating, Lambsquarters","[5]; 62 g ai/ha, scale 0 to 100",0
same,Lambsquarters plant response rating,"[5]; 8 g ai/ha, scale 0 to 100",0
same,"Plant response rating, Soybean",[6]; [15],0
same,"Plant response rating, Soybean",[6]; [16],0
same,"Plant response rating, Soybean","[6]; 62 g ai/ha, scale 0 to 100",60
same,Soybean plant response rating,"[6]; 8 g ai/ha, scale 0 to 100",0
same,"Plant response rating, Cocklebur",[7]; [15],0
same,"Plant response rating, Cocklebur",[7]; [16],0
same,"Plant response rating, Cocklebur","[7]; 62 g ai/ha, scale 0 to 100",0
same,Cocklebur plant response rating,"[7]; 8 g ai/ha, scale 0 to 100",0
same,"Plant response rating, Velvetleaf",[8]; [15],0
same,"Plant response rating, Velvetleaf",[8]; [16],0
same,"Plant response rating, Velvetleaf","[8]; 62 g ai/ha, scale 0 to 100",0
same,Velvetleaf plant response rating,"[8]; 8 g ai/ha, scale 0 to 100",0
same,"Plant response rating, Goosegrass",[9]; [15],90
same,"Plant response rating, Goosegrass",[9]; [16],100
same,"Plant response rating, Goosegrass","[9]; 62 g ai/ha, scale 0 to 100",100
same,Goosegrass plant response rating,"[9]; 8 g ai/ha, scale 0 to 100",85
same,"Plant response rating, Kochia",[10]; [15],0
same,"Plant response rating, Kochia",[10]; [16],0
same,"Plant response rating, Kochia","[10]; 62 g ai/ha, scale 0 to 100",0
same,Kochia plant response rating,"[10]; 8 g ai/ha, scale 0 to 100",0
same,"Plant response rating, Russian Thistle",[11]; [15],0
same,"Plant response rating, Russian Thistle",[11]; [16],0
same,"Plant response rating, Russian Thistle","[11]; 62 g ai/ha, scale 0 to 100",0
same,Russian Thistle plant response rating,"[11]; 8 g ai/ha, scale 0 to 100",0
same,"Plant response rating, Nutsedge, Yellow",[12]; [15],0
same,"Plant response rating, Nutsedge, Yellow",[12]; [16],0
same,"Plant response rating, Nutsedge, Yellow","[12]; 62 g ai/ha, scale 0 to 100",0
same,"Nutsedge, Yellow plant response rating","[12]; 8 g ai/ha, scale 0 to 100",0
same,"Plant response rating, Cupgrass, Woolly",[13]; [15],98
same,"Plant response rating, Cupgrass, Woolly",[13]; [16],100
same,"Plant response rating, Cupgrass, Woolly","[13]; 62 g ai/ha, scale 0 to 100",100
same,"Cupgrass, Woolly plant response rating","[13]; 8 g ai/ha, scale 0 to 100",70
same,Bermudagrass plant response rating,"[14]; 8 g ai/ha, scale 0 to 100 (0 no effect, 100 complete control)",95
same,"Plant response rating, Bermudagrass",[14]; [15],100
same,"Plant response rating, Bermudagrass",[14]; [16],100
same,"Plant response rating, Bermudagrass","[14]; 62 g ai/ha, scale 0 to 100",100
